Reference: patent US20080286337A1, “Method of treating a disease in an eye using a scleral lens” (Boston Foundation for Sight, priority 2007, published 2008)
Like-named read-outs stand apart in the source and are kept apart here.

Key:
[1] = tested on: corneal neovascularization; experiment: Topical AVASTIN in the scleral lens drug delivery system to treat corneal neovascularization; format: in vivo
Text: This study using AVASTIN® off-label, topically, to treat corneal neovascularization was repeated using the scleral lens drug delivery system. […] This therapeutic effect was achieved without BAK. Instead, the expanded pre-corneal tear film of the scleral lens drug delivery system provided adequate bioavailability of the drug without exposing the cornea to BAK.

[2] = tested on: corneal neovascularization; conditions: solution of 1% AVASTIN and 0.01% BAK, one drop, four times per day for at least thirty days; no scleral lens; cited from earlier work

bevacizumab [AVASTIN®]
therapeutic effect on corneal neovascularization ([1]; one drop of 1% AVASTIN added to expanded pre-corneal tear film of artificial tears in a scleral lens twice per day, without BAK): achieved a therapeutic effect by thirty days
continued benefit after initial therapeutic effect ([1]; same regimen, the sixty days following the first thirty days): continued benefit over the subsequent sixty days
regression of corneal neovascularization (clinical photos, FIG. 5) ([1]; scleral lens drug delivery system): regression of corneal neovascularization
therapeutic effect on corneal neovascularization [2]: Therapeutic effect was reported
